The values that follow come from ChEMBL document CHEMBL1158371, “Design, synthesis, and evaluation of biphenyl-4-yl-acrylohydroxamic acid derivatives as histone deacetylase (HDAC) inhibitors” (Eur J Med Chem, 2009).

Data set [1] relates to Mus musculus. Put plainly: Toxicity in athymic nude Swiss mouse bearing human HCT116 cells assessed as body weight loss at 20 mg/kg, po QD administered 5 days a week for 4 weeks. The format is organism-based, HCT-116. Further details: dose 20 mg/kg, route oral. The note with it: in vivo.
The test system of data set [2] is HCT-116. Put plainly: Antitumor activity against human HCT116 cells athymic nude Swiss mouse assessed as tumor volume inhibition at 20 mg/kg, ip QD administered 5 days a week for 4 weeks. The settings on record: HCT-116, ip, route intraperitoneal. The format is functional.
Data set [3] concerns Mus musculus. Put plainly: Toxicity in athymic nude Swiss mouse bearing human HCT116 cells assessed as body weight loss at 20 mg/kg, ip QD administered 5 days a week for 4 weeks. The format is organism-based, HCT-116. The note with it: in vivo. Also on record: dose 20 mg/kg, route intraperitoneal.
Data set [4] deals with Mus musculus. Put plainly: Toxicity in athymic nude Swiss mouse bearing human IGROV1 cells assessed as body weight loss at 20 mg/kg, po QD administered 5 days a week for 4 weeks. Format: organism-based, IGROV-1. Further details: dose 20 mg/kg, route oral. The note with it: in vivo.
In data set [5] the test system is NCI-H460. Put plainly: animal or person. Format: functional, Homo sapiens. The settings on record: Mus musculus, route oral.
Description: Antitumor activity against human H460 cells athymic nude Swiss mouse assessed as tumor volume inhibition at 100 mg/kg, po QD administered 5 days a week for 2 weeks
For data set [6], the system named is HCT-116. In words: Antiproliferative activity against human HCT116 cells after 72 hrs. The note with it: HCT-116, 72 h. The format is functional, cell-based.
For data set [7], the system named is Mus musculus. In words: Toxicity in athymic nude Swiss mouse bearing human H460 cells assessed as body weight loss at 100 mg/kg, ip QD administered 5 days a week for 2 weeks. Format: organism-based. Further details: dose 100 mg/kg, route intraperitoneal. The settings on record: in vivo.
For data set [8], the system named is IGROV-1. Put plainly: Cell cycle arrest in human IGROV1 cells assessed as accumulation at sub-G1 phase at IC80 after 24 hrs using propidium-iodide staining by flow-cytometry. The format is functional, cell-based.
The subject of data set [9] is IGROV-1. Put plainly: Antiproliferative activity against human IGROV1 cells after 72 hrs by cell counting. The note with it: IGROV-1, 72 h.
Data set [10] has as its system HCT-116. Put plainly: Antitumor activity against human HCT116 cells athymic nude Swiss mouse assessed as tumor volume inhibition at 20 mg/kg, po QD administered 5 days a week for 4 weeks. The format is functional.
Data set [11] relates to IGROV-1. Put plainly: Cell cycle arrest in cisplatin-resistant human IGROV1 cells assessed as partial accumulation at G2/M phase at IC80 using propidium-iodide staining by flow-cytometry. The format is functional, cell-based.
Data set [12] concerns NCI-H460. In words: Antiproliferative activity against human H460 cells after 72 hrs. Format: functional, cell-based. The settings on record: NCI-H460, 72 h.
Data set [13] concerns IGROV-1. Put plainly: Antiproliferative activity against human IGROV1 cells after 72 hrs. The format is functional, cell-based. The settings on record: IGROV-1, 72 h.
Data set [14] concerns the target Histone deacetylase 2 (Homo sapiens, UniProt Q92769). Put plainly: Inhibition of HDAC2 in human HeLa cells. Format: cell-based.
Data set [15] relates to IGROV-1. In words: Induction of apoptosis in human IGROV1 cells at IC80 after 72 hrs by TUNEL assay. Format: functional.
Data set [16] deals with NCI-H460. Put plainly: Antitumor activity against human H460 cells athymic nude Swiss mouse assessed as tumor volume inhibition at 100 mg/kg, ip QD administered 5 days a week for 2 weeks. Format: functional. The note with it: route intraperitoneal.
Data set [17] concerns IGROV-1. Put plainly: Cell cycle arrest in cisplatin-resistant human IGROV1 cells assessed as partial accumulation at S phase at IC80 using propidium-iodide staining by flow-cytometry. The format is functional, cell-based.
Data set [18] deals with IGROV-1. In words: Antiproliferative activity against cisplatin-resistant human IGROV1 cells after 72 hrs. Format: functional, cell-based. The settings on record: IGROV-1, 72 h.
The subject of data set [19] is IGROV-1. In words: Antitumor activity against human IGROV1 cells athymic nude Swiss mouse assessed as tumor volume inhibition at 20 mg/kg, po QD administered 5 days a week for 4 weeks. Format: functional.
In data set [20] the test system is IGROV-1. Put plainly: Cell cycle arrest in human IGROV1 cells assessed as accumulation at sub-G1 phase at IC90 after 24 hrs using propidium-iodide staining by flow-cytometry. Format: functional, cell-based.
Data set [21] deals with Mus musculus. Put plainly: Toxicity in athymic nude Swiss mouse bearing human HCT116 cells assessed as body weight loss at 100 mg/kg, po QD administered 5 days a week for 4 weeks. The format is organism-based, HCT-116. Further details: dose 100 mg/kg, route oral. The note with it: in vivo.
Data set [22] concerns IGROV-1. Put plainly: Cell cycle arrest in cisplatin-resistant human IGROV1 cells assessed as partial accumulation at G2/M phase at IC90 using propidium-iodide staining by flow-cytometry. The format is functional, cell-based.
For data set [23], the system named is IGROV-1. In words: Cell cycle arrest in cisplatin-resistant human IGROV1 cells assessed as partial accumulation at S phase at IC90 using propidium-iodide staining by flow-cytometry. Format: functional, cell-based.
Data set [24] concerns IGROV-1. In words: Induction of apoptosis in human IGROV1 cells at IC90 after 72 hrs by TUNEL assay. The format is functional.
In data set [25] the test system is NB-4. Put plainly: Antiproliferative activity against human NB4 cells after 72 hrs. The format is functional, cell-based. The note with it: NB-4, 72 h.
For data set [26], the system named is Mus musculus. Put plainly: Toxicity in athymic nude Swiss mouse bearing human HCT116 cells assessed as body weight loss at 40 mg/kg, po QD administered 5 days a week for 4 weeks. The format is organism-based, HCT-116. Also on record: dose 40 mg/kg, route oral. The note with it: in vivo.
Data set [27] has as its system Mus musculus. Put plainly: Toxicity in athymic nude Swiss mouse bearing human IGROV1 cells assessed as body weight loss at 40 mg/kg, po QD administered 5 days a week for 4 weeks. Format: organism-based, IGROV-1. Also on record: dose 40 mg/kg, route oral. The note with it: in vivo.
Data set [28] relates to IGROV-1. In words: Antitumor activity against human IGROV1 cells athymic nude Swiss mouse assessed as tumor volume inhibition at 40 mg/kg, po QD administered 5 days a week for 4 weeks. The format is functional.
Data set [29] has as its system HCT-116. In words: Antitumor activity against human HCT116 cells athymic nude Swiss mouse assessed as tumor volume inhibition at 40 mg/kg, po QD administered 5 days a week for 4 weeks. Format: functional.

The structures appear in SMILES notation. Calls of active or inactive are those of the source. The rule behind the calls is not given here.

Histone deacetylase 2, sequence (Q92769 whole entry): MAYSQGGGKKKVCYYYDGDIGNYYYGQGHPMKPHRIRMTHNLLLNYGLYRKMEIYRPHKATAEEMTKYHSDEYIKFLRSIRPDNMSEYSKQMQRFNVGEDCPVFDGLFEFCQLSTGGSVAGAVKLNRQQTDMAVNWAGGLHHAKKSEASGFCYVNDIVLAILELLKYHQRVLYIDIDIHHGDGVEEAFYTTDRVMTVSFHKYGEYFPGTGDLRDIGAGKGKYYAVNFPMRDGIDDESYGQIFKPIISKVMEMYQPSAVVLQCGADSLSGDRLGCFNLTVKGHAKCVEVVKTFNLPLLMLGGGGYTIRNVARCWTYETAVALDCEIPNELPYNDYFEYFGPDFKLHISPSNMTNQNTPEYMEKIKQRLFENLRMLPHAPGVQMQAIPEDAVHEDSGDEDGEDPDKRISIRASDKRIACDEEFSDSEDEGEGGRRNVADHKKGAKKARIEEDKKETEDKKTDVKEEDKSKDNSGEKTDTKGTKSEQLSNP

Broadly, the inhibition in vivo is the change of the read-out against control, counted positive when it falls. Usually IC50 stands for the concentration at which inhibition is half-maximal. Read a low IC50 as higher potency. For orientation: IC80 means the point of the concentration-response curve where the effect stands at 80%. Consider `COc1ccc(-c2ccc(/C=C/C(=O)NO)cc2)cc1`, for which the Activity in data set [1] is reported as 1%; in data set [3], 2%; in [4] it was 0%; in data set [7], 4%; in [15] it was 52%. For the same compound, the inhibition in vivo at 20 mg/kg in data set [2] turned out to be 50%; in data set [10], 35%; in [19] it was 71%. Besides, the figures for the inhibition in vivo at 100 mg/kg in [5] and in data set [16] were 57% and 39%, respectively. Besides, the IC50 stood at 220 nM in data set [6]; 3700 nM in [12]; 750 nM in data set [13]; 1160 nM in [14]; 2300 nM in [18]. Moreover, the outcome in data set [8], in data set [11] and in [17] was Active. The same compound came in with a concentration for an effect of 80% (IC80) in data set [9] of 3000 nM.

With `O=C(CCCCCCC(=O)Nc1ccccc1)NO` [VORINOSTAT], the outcome in data set [20], in [22], in [8], in data set [11], in data set [23] and in data set [17] was Active. Further, the Activity in data set [21] amounted to 4%; in [15] it was 15%; in data set [24] it was 45%. The values for the IC50 in data set [6], in data set [13] and in data set [18] were 310 nM, 2200 nM and 2200 nM, respectively.

As to `O=C(/C=C/c1ccc(-c2ccc(O)cc2)cc1)NO`, the IC50 stood at 2300 nM in data set [25]; 330 nM in data set [6]; 6000 nM in data set [12]; 7600 nM in data set [13]; 6500 nM in data set [18]. The Activity in [26] was determined as 8%; in data set [27], 6%; in data set [4] it was 2%; in data set [15], 40%. The IC80 in [9] was 20000 nM. Further, the inhibition in vivo at 40 mg/kg in [28] stood at 49%; in [29], 65%. For the same compound, the inhibition in vivo at 20 mg/kg in [19] is 44%.
